In ChEMBL document CHEMBL1201862, “PubChem BioAssay data set” (2004):
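A five-concentration, 48-hour dose response in 96-well plates underlies each endpoint, interpolated linearly between surrounding concentrations. Here, GI50 denotes the concentration required for 50% inhibition of growth.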 Calls of active or inactive are those of the source. Cut-off read from the data, not from the text of the source: active = GI50 up to about 1.1 µM and inactive = higher.

Legend:
Experiment in all cases: inhibition of tumour cell growth, NCI panel, 48 h
UO-31 = system: UO-31
HOP-62 = system: HOP-62
SK-OV-3 = system: SK-OV-3
SNB-75 = system: SNB-75
Malme-3M = system: Malme-3M
NCI-H226 = system: NCI-H226
SK-MEL-5 = system: SK-MEL-5
EKVX = system: EKVX
UACC-62 = system: UACC-62
SF-539 = system: SF-539
SK-MEL-28 = system: SK-MEL-28
OVCAR-5 = system: OVCAR-5
HT-29 = system: HT-29
NCI-H23 = system: NCI-H23
MDA-MB-435 = system: MDA-MB-435
MOLT-4 = system: MOLT-4
TK-10 = system: TK-10
OVCAR-3 = system: OVCAR-3
KM12 = system: KM12
HCT-116 = system: HCT-116

Measured: GI50

COc1ccc(C(=O)N=C2N(c3ccccc3)C(=N/c3ccccc3)/C(=N\c3ccccc3)N2c2ccccc2)cc1
inactive: UO-31 > 100 µM | HOP-62 8.63 µM | SK-OV-3 33.7 µM | SNB-75 7.82 µM | Malme-3M 20.6 µM | NCI-H226 29.9 µM | SK-MEL-5 23.2 µM | EKVX 48.8 µM | UACC-62 37.1 µM | SF-539 35 µM | SK-MEL-28 18.3 µM | OVCAR-5 > 75.7 µM | HT-29 > 95.3 µM | NCI-H23 39.3 µM | MDA-MB-435 88.3 µM | MOLT-4 > 100 µM | TK-10 18.5 µM | OVCAR-3 > 100 µM | KM12 > 61.2 µM | HCT-116 36.1 µM

O=C(O)CCS/C(=C\C(SCCC(=O)O)c1ccc(Cl)cc1)c1ccc(Cl)cc1 (stereo not given)
inactive: UO-31 78 µM | HOP-62 37.5 µM | SK-OV-3 > 100 µM | SNB-75 78.3 µM | Malme-3M 76.4 µM | NCI-H226 69 µM | SK-MEL-5 48.3 µM | EKVX 62.5 µM | UACC-62 18.4 µM | SF-539 37.2 µM | SK-MEL-28 45.1 µM | OVCAR-5 > 100 µM | HT-29 43.6 µM | NCI-H23 42.5 µM | MDA-MB-435 36.4 µM | MOLT-4 37.2 µM | TK-10 80.7 µM | OVCAR-3 21.6 µM | KM12 25.6 µM | HCT-116 21.4 µM

CCOP(=O)(OCC)C(C)(CC)N/C(N)=N/C#N (stereo not given)
inactive: UO-31 > 100 µM | HOP-62 > 100 µM | SK-OV-3 > 100 µM | SNB-75 > 100 µM | Malme-3M > 100 µM | NCI-H226 > 100 µM | SK-MEL-5 > 100 µM | EKVX > 100 µM | UACC-62 > 100 µM | SF-539 > 100 µM | SK-MEL-28 > 100 µM | OVCAR-5 > 100 µM | HT-29 > 100 µM | NCI-H23 > 100 µM | MDA-MB-435 > 100 µM | MOLT-4 > 100 µM | TK-10 > 100 µM | OVCAR-3 > 100 µM | KM12 > 100 µM | HCT-116 > 100 µM

CN(C)/C=C/c1nnnn1-c1ccc(I)cc1
inactive: UO-31 17.6 µM | HOP-62 31.8 µM | SK-OV-3 18.1 µM | SNB-75 11.1 µM | Malme-3M 21 µM | NCI-H226 22.8 µM | SK-MEL-5 16.6 µM | EKVX 21.6 µM | UACC-62 12.4 µM | SF-539 19.5 µM | SK-MEL-28 26.7 µM | OVCAR-5 23.7 µM | HT-29 22.9 µM | NCI-H23 24.7 µM | MDA-MB-435 20.5 µM | MOLT-4 15.1 µM | TK-10 30.5 µM | OVCAR-3 23.6 µM | KM12 18.5 µM | HCT-116 10.5 µM

CN1CCCOC(c2ccc([N+](=O)[O-])cc2)O1 (stereo not given)
inactive: UO-31 > 100 µM | HOP-62 > 100 µM | SK-OV-3 > 100 µM | SNB-75 > 100 µM | Malme-3M > 100 µM | NCI-H226 > 100 µM | SK-MEL-5 > 100 µM | EKVX > 100 µM | UACC-62 > 100 µM | SF-539 > 100 µM | SK-MEL-28 > 100 µM | OVCAR-5 > 100 µM | HT-29 > 100 µM | NCI-H23 > 100 µM | MDA-MB-435 > 100 µM | MOLT-4 > 100 µM | TK-10 > 100 µM | OVCAR-3 > 100 µM | KM12 > 100 µM | HCT-116 > 100 µM
